Data set [1] concerns Groα secretion by HT-29 cells. Description: Inhibition of Groα secretion by HT-29 cells stimulated with IL-17A (ELISA). Type of data set: cell-based, Human. The note with it: Homo sapiens, IL-17A 30 ng/ml, 48 hours, Groα in supernatant. The method, boiled down:
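HT-29 cells (10,000/well) were cultured overnight, then given compound pre-mixed 30 min with IL-17A (final 30 ng/ml) and incubated 48 hours at 37°C. Groα in supernatant was measured by ELISA at 450 nm; inhibition relative to IL-17A-stimulated control, IC50 from four-parameter fit.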
For orientation: In an ELISA, binding on a coated surface is turned into a signal by an enzyme label.

Data set [2] in a line: Pharmacokinetic assay in Wistar rats, oral. Particulars: rat, plasma, 30 mg/kg.
Data set [3] addresses T1, human IL-17RA and IL-17A proteins (Homo sapiens, UniProt Q16552).
T1 sequence (Q16552 24-155): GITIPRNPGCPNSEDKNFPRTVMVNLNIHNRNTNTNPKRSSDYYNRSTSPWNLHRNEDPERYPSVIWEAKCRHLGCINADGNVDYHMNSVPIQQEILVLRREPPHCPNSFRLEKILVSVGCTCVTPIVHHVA
Description: Competitive ELISA: blocking of binding between human IL-17RA and IL-17A. Particulars: coated IL-17A, IL-17RA 5 nM. How it is done: Test example 1 Assay for competitive binding effect between compounds of the present invention and human IL-17 receptor for ligand
1. Experimental objective: to quantitatively determine the blocking effect of the compound on the binding between human IL-17RA and IL-17A proteins using competitive ELISA under in vitro conditions. 2. Experimental instruments and reagents: 2.1 Instruments:
2.2 Reagents: 3. Experimental method: IL-17A at 0.0625 µg/mL was coated in a 96-well plate at 4°C overnight at 100 µL per well. The plate was washed with PBST (300 µL/well x 4), and then blocked at 24°C for 2 h by adding 300 µL of ELISA Blocker blocking buffer to each well. The plate was further washed under the same conditions. 80 µL of PBS solution containing 1% BSA and 10 µL of 10× test compound solution were added to each well and mixed uniformly, and then the mixture was incubated at room temperature for 1 hour. After that, 10 µL of IL-17RA solution was added to a final concentration of 5 nM and mixed uniformly, and then the mixture was incubated at 24°C for 1 h. The corresponding concentration and volume of DMSO solution without compounds was added to positive control wells, and 1% BSA solution without IL-17RA was added to negative control wells.
After the plate was washed four times, 100 µL of the anti-Fc tag HRP-conjugated antibody was added, and the mixture was incubated at 37°C for 1 h. After the plate was washed four times, 100 µL of TMB substrate was added to each well, and the mixture was incubated at 37°C in the dark. After colour development was completed, the reaction was terminated by adding 100 µL of stop solution to each well, and the absorbance was measured at wavelengths of 450 nm and 570 nm using a microplate reader.
• 1) Inhibition rate (%): The original data (OD450-OD570) was calculated according to the following formula to obtain the inhibition rate. Inhibition rate% = [(average value of positive control wells - value of sample wells)/(average value of positive control wells - average value of negative control wells)] × 100, where the positive control wells are wells without compounds, and the negative control wells are wells without IL-17RA protein solution. • 2) Curve fitting: Log(inhibitor) vs. response -- Variable slope (four parameters) in GraphPad Prism 8 was used for fitting equation analysis of the compound concentration and the corresponding inhibition rate, and the curve was fitted to obtain the IC50 value of the compound. The fitting calculation equation was Y = Bottom + (Top - Bottom) / (1 + 10^((LogIC50 - X) * HillSlope)).

Molecules are shown by their SMILES.

Usually IC50 stands for the point on the concentration scale where inhibition reaches its midpoint. The low end stands for higher potency, the high end for lower potency. By AUC(0-t) is commonly meant the area under the concentration-time curve up to a stated or last time point. A high value points to more exposure. One may read the Cmax as the maximum level reached in the sampled fluid or tissue. As a reminder, the Tmax is the time at which the peak concentration occurs. The half-life is how long it takes for the measured level to halve. The low end stands for fast loss, the high end for slow loss. In data set [1], `C[C@@H]1CN(C[C@H](c2cnc(NC(=O)[C@@H](NC(=O)C3(F)CC3)[C@H]3CC[C@H](C)CC3)s2)N2CC(F)(F)CNC2=O)[C@@H](C)CO1` [Example 731] had an IC50 of 6 nM. In addition, in data set [2], the AUC(0-t) was 14300 ng·h/mL, the concentration peaked (Cmax) at 1840 ng/mL, the Tmax is 2 h and the half-life is 2.3 h. The same compound returned an IC50 in data set [3] of 6.6 nM.
In data set [1], `C[C@@H]1CN(C[C@H](c2cnc(NC(=O)[C@@H](NC(=O)C3(F)CC3)[C@H]3CC[C@H](C)CC3)s2)N2CC(F)(F)CNC2=O)[C@H](C)CO1` [Example 736, N-((S)-2-((5-((R)-1-(5,5-difluoro-2-oxotetrahydropyrimidin-1(2H)-yl)-2-((2R,5R)-2,5-dimethylmorpholino)ethyl)thiazol-2-yl)amino)-1-((1r,4S)-4-methylcyclohexyl)-2-oxoethyl)-1-fluorocyclopropane-1-carboxamide] registered an IC50 of 1 nM. Also, in data set [2], the exposure AUC(0-t) came out at 10800 ng·h/mL, the maximum concentration (Cmax) amounted to 1310 ng/mL, the Tmax stood at 2 h and the half-life is 2.4 h. Further, the half-inhibitory concentration (IC50) in data set [3] is 3.6 nM.
The compound `CC1CCC(C(NC(=O)C2(F)CC2)C(=O)Nc2ncc(C(CN3C(C)COCC3C)N3CC(F)(F)CNC3=O)s2)CC1` (stereo not drawn) [Example 739] registered an IC50 in data set [1] of 3 nM. In data set [2], the AUC(0-t) was 10300 ng·h/mL, the Cmax worked out at 1940 ng/mL, the Tmax was determined as 2 h and the half-life is 2.5 h. Moreover, in data set [3], the 50% inhibitory concentration (IC50) was determined as 5 nM.
In turn, `C[C@H]1CC[C@H]([C@H](NC(=O)C2(F)CC2)C(=O)Nc2ncc([C@@H](CN3CCC(F)(F)CC3)N3CC(F)(F)CNC3=O)s2)CC1` [Example 763, N-((S)-2-((5-((R)-1-(5,5-difluoro-2-oxotetrahydropyrimidin-1(2H)-yl)-2-(4,4-difluoropiperidin-1-yl)ethyl)thiazol-2-yl)amino)-1-((1r,4S)-4-methylcyclohexyl)-2-oxoethyl)-1-fluorocyclopropane-1-carboxamide] yielded an IC50 in data set [1] of 4.5 nM. Besides, in data set [2], the exposure AUC(0-t) is 15900 ng·h/mL, the highest concentration (Cmax) amounted to 1480 ng/mL, the Tmax is 4 h and the half-life was 3.4 h. This compound also yielded an IC50 in data set [3] of 6 nM.
In turn, `C[C@H]1CC(F)(F)CCN1C[C@H](c1cnc(NC(=O)[C@@H](NC(=O)C2(F)CC2)[C@H]2CC[C@H](C)CC2)s1)N1CC(F)(F)CNC1=O` [Example 764] came in with an IC50 in data set [1] of 7 nM. In data set [2], the exposure AUC(0-t) turned out to be 11700 ng·h/mL, the concentration peaked (Cmax) at 1090 ng/mL, the Tmax was found to be 4 h and the half-life was 4.1 h. Also, the IC50 in data set [3] came to 7 nM.
In data set [1], `C[C@H]1CC[C@H]([C@H](NC(=O)C2(F)CC2)C(=O)Nc2ncc([C@@H](CN3CCC(C(F)F)CC3)N3CC(F)(F)CNC3=O)s2)CC1` [Example 770] yielded an IC50 of 3.4 nM. Further, in data set [2], the area under the curve AUC(0-t) was 11600 ng·h/mL, the peak level (Cmax) was 1350 ng/mL, the Tmax worked out at 4 h and the half-life is 3.5 h. This compound also returned a half-inhibitory concentration (IC50) in data set [3] of 7 nM.
`[2H]C([2H])([2H])OC1(C)CCN(C[C@H](c2cnc(NC(=O)[C@@H](NC(=O)C3(F)CC3)[C@H]3CC[C@H](C)CC3)s2)N2CC(F)(F)CNC2=O)CC1` [Example 787]: inhibition in data set [1] was half-maximal at 8.9 nM (IC50). In addition, in data set [2], the AUC(0-t) turned out to be 18800 ng·h/mL, the concentration peaked (Cmax) at 2330 ng/mL, the Tmax was determined as 2 h and the half-life is 2.4 h. For the same compound, the IC50 in data set [3] is 9 nM.
In turn, `C[C@@H]1CN(C[C@H](c2cnc(NC(=O)[C@@H](NC(=O)C3(F)CC3)[C@H]3CC[C@H](C)CC3)s2)N2CC(F)(F)CNC2=O)CCO1` [Example 1012, N-((S)-2-((5-((R)-1-(5,5-difluoro-2-oxotetrahydropyrimidin-1(2H)-yl)-2-((R)-2-methylmorpholino)ethyl)thiazol-2-yl)amino)-1-((1r,4S)-4-methylcyclohexyl)-2-oxoethyl)-1-fluorocyclopropane-1-carboxamide] showed a half-maximal inhibitory concentration (IC50) in data set [1] of 3 nM. In data set [2], the area under the curve AUC(0-t) was 14200 ng·h/mL, the highest concentration (Cmax) amounted to 2220 ng/mL, the Tmax came to 2 h and the half-life is 2.3 h. The half-maximal inhibitory concentration (IC50) in data set [3] turned out to be 6 nM.
In data set [1], `C[C@H]1COCCN1C[C@H](c1cnc(NC(=O)[C@@H](NC(=O)C2(F)CC2)[C@H]2CC[C@H](C)CC2)s1)N1CC(F)(F)CNC1=O` [Example 1014, N-((S)-2-((5-((R)-1-(5,5-difluoro-2-oxotetrahydropyrimidin-1(2H)-yl)-2-((S)-3-methylmorpholino)ethyl)thiazol-2-yl)amino)-1-((1r,4S)-4-methylcyclohexyl)-2-oxoethyl)-1-fluorocyclopropane-1-carboxamide] registered a half-inhibitory concentration (IC50) of 8 nM. In data set [2], the exposure AUC(0-t) turned out to be 12800 ng·h/mL, the Cmax amounted to 1670 ng/mL, the time of peak concentration (Tmax) was determined as 4 h and the half-life is 2.4 h. Also, the IC50 in data set [3] came to 7 nM.

Values taken from patent EP4711365A1 (Shanghai Hansoh Biomedical Co., Ltd., priority 2023, dated 2024).
